# Results taken from PubChem BioAssay AID2060905 (Molecular Pharmacology Branch, DTP, NCI, 2025).
# Tested on: 282377-053-R-J1-PDC complex spheroid viability
# Experiment: Anticancer human tumor 282377-053-R-J1-PDC patient-derived colon adenocarcinoma cell line growth inhibition [RAS]
# Details: for IC50: curve of first compound; for viability, T/C: stronger effect = lower value
# Procedure, shortened: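 Agents were tested in combination matrices in half-log decrements from a top concentration at or near clinical Cmax (10 microM if undetermined). Targets were multi-cell spheroids of tumour lines plus HUVEC and MSC stromal cells.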
# [1] = second compound 0.000949 µM, first compound 0.0316 µM
# [2] = second compound 0.000949 µM, first compound 0.1 µM
# [3] = second compound 0.000949 µM, first compound 0.316 µM
# [4] = second compound 0.000949 µM, first compound 1 µM
# [5] = second compound 0.000949 µM, first compound 3.16 µM
# [6] = second compound 0.000949 µM, first compound 10 µM
# [7] = second compound 0.003 µM, first compound 0.0316 µM
# [8] = second compound 0.003 µM, first compound 0.1 µM
# [9] = second compound 0.003 µM, first compound 0.316 µM
# [10] = second compound 0.003 µM, first compound 1 µM
# [11] = second compound 0.003 µM, first compound 3.16 µM
# [12] = second compound 0.003 µM, first compound 10 µM
# [13] = second compound 0.00949 µM, first compound 0.0316 µM
# [14] = second compound 0.00949 µM, first compound 0.1 µM
# [15] = second compound 0.00949 µM, first compound 0.316 µM
# [16] = second compound 0.00949 µM, first compound 1 µM
# [17] = second compound 0.00949 µM, first compound 3.16 µM
# [18] = second compound 0.00949 µM, first compound 10 µM
# [19] = second compound 0.03 µM, first compound 0.0316 µM
# [20] = second compound 0.03 µM, first compound 0.1 µM
# [21] = second compound 0.03 µM, first compound 0.316 µM
# [22] = second compound 0.03 µM, first compound 1 µM
# [23] = second compound 0.03 µM, first compound 3.16 µM
# [24] = second compound 0.03 µM, first compound 10 µM
# [25] = second compound 0.0949 µM, first compound 0.0316 µM
# [26] = second compound 0.0949 µM, first compound 0.1 µM
# [27] = second compound 0.0949 µM, first compound 0.316 µM
# [28] = second compound 0.0949 µM, first compound 1 µM
# [29] = second compound 0.0949 µM, first compound 3.16 µM
# [30] = second compound 0.0949 µM, first compound 10 µM
# [31] = second compound 0.3 µM, first compound 0.0316 µM
# [32] = second compound 0.3 µM, first compound 0.1 µM
# [33] = second compound 0.3 µM, first compound 0.316 µM
# [34] = second compound 0.3 µM, first compound 1 µM
# [35] = second compound 0.3 µM, first compound 3.16 µM
# [36] = second compound 0.3 µM, first compound 10 µM
# [37] = second compound 0.000949 µM, first compound 0.00316 µM
# [38] = second compound 0.000949 µM, first compound 0.01 µM
# [39] = second compound 0.003 µM, first compound 0.00316 µM
# [40] = second compound 0.003 µM, first compound 0.01 µM
# [41] = second compound 0.00949 µM, first compound 0.00316 µM
# [42] = second compound 0.00949 µM, first compound 0.01 µM
# [43] = second compound 0.03 µM, first compound 0.00316 µM
# [44] = second compound 0.03 µM, first compound 0.01 µM
# [45] = second compound 0.0949 µM, first compound 0.00316 µM
# [46] = second compound 0.0949 µM, first compound 0.01 µM
# [47] = second compound 0.3 µM, first compound 0.00316 µM
# [48] = second compound 0.3 µM, first compound 0.01 µM
# 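Further: spheroids exposed to agents for seven days before readout.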
# 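Wherever viability, T/C is given: luminescence viability as percent of DMSO vehicle control wells.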
smiles,measurement,setting,value
CC(C)NCC(C(=O)N1CCN(c2ncnc3c2C(C)CC3O)CC1)c1ccc(Cl)cc1 (stereo not drawn) + CCn1c(-c2cccnc2C(C)OC)c2c3cc(ccc31)N1CCOC(CC(NC(=O)C(C(C)C)N(C)C(=O)C3(F)CCN(C(=O)C#CC(C)(C)N(C)C)CC3)C(=O)N3CCCC(N3)C(=O)OCC(C)(C)C2)C1,IC50,second compound 0.000949 µM,> 10000 nM
same,IC50,second compound 0.003 µM,> 10000 nM
same,IC50,second compound 0.00949 µM,> 10000 nM
same,IC50,second compound 0.03 µM,> 10000 nM
same,IC50,second compound 0.0949 µM,> 10000 nM
same,IC50,second compound 0.3 µM,> 10000 nM
same,"viability, T/C",[1],96.4%
same,"viability, T/C",[2],99.7%
same,"viability, T/C",[3],109%
same,"viability, T/C",[4],89.7%
same,"viability, T/C",[5],78.3%
same,"viability, T/C",[6],70.6%
same,"viability, T/C",[7],104%
same,"viability, T/C",[8],96.5%
same,"viability, T/C",[9],91.9%
same,"viability, T/C",[10],82.2%
same,"viability, T/C",[11],79.5%
same,"viability, T/C",[12],78.2%
same,"viability, T/C",[13],114%
same,"viability, T/C",[14],93%
same,"viability, T/C",[15],90%
same,"viability, T/C",[16],88.8%
same,"viability, T/C",[17],82.5%
same,"viability, T/C",[18],74.5%
same,"viability, T/C",[19],104%
same,"viability, T/C",[20],111%
same,"viability, T/C",[21],81.3%
same,"viability, T/C",[22],103%
same,"viability, T/C",[23],69.8%
same,"viability, T/C",[24],88.1%
same,"viability, T/C",[25],88.4%
same,"viability, T/C",[26],94.4%
same,"viability, T/C",[27],127%
same,"viability, T/C",[28],90%
same,"viability, T/C",[29],72.5%
same,"viability, T/C",[30],67.8%
same,"viability, T/C",[31],105%
same,"viability, T/C",[32],112%
same,"viability, T/C",[33],94.8%
same,"viability, T/C",[34],92.7%
same,"viability, T/C",[35],77.3%
same,"viability, T/C",[36],80.7%
CC(C)n1nc(-c2ccc3oc(N)nc3c2)c2c(N)ncnc21 + CCn1c(-c2cccnc2C(C)OC)c2c3cc(ccc31)N1CCOC(CC(NC(=O)C(C(C)C)N(C)C(=O)C3(F)CCN(C(=O)C#CC(C)(C)N(C)C)CC3)C(=O)N3CCCC(N3)C(=O)OCC(C)(C)C2)C1,IC50,second compound 0.000949 µM,> 100 nM
same,IC50,second compound 0.003 µM,> 100 nM
same,IC50,second compound 0.00949 µM,> 100 nM
same,IC50,second compound 0.03 µM,> 100 nM
same,IC50,second compound 0.0949 µM,> 100 nM
same,IC50,second compound 0.3 µM,> 100 nM
same,"viability, T/C","second compound 0.000949 µM, first compound 0.000316 µM",91.5%
same,"viability, T/C","second compound 0.000949 µM, first compound 0.001 µM",112%
same,"viability, T/C",[37],87.1%
same,"viability, T/C",[38],76.9%
same,"viability, T/C",[1],65.7%
same,"viability, T/C",[2],59.7%
same,"viability, T/C","second compound 0.003 µM, first compound 0.000316 µM",84.5%
same,"viability, T/C","second compound 0.003 µM, first compound 0.001 µM",103%
same,"viability, T/C",[39],73.8%
same,"viability, T/C",[40],73.6%
same,"viability, T/C",[7],75.3%
same,"viability, T/C",[8],70.1%
same,"viability, T/C","second compound 0.00949 µM, first compound 0.000316 µM",119%
same,"viability, T/C","second compound 0.00949 µM, first compound 0.001 µM",108%
same,"viability, T/C",[41],98.5%
same,"viability, T/C",[42],80%
same,"viability, T/C",[13],67.8%
same,"viability, T/C",[14],59.1%
same,"viability, T/C","second compound 0.03 µM, first compound 0.000316 µM",110%
same,"viability, T/C","second compound 0.03 µM, first compound 0.001 µM",87.2%
same,"viability, T/C",[43],77.3%
same,"viability, T/C",[44],86%
same,"viability, T/C",[19],66.9%
same,"viability, T/C",[20],50.2%
same,"viability, T/C","second compound 0.0949 µM, first compound 0.000316 µM",100%
same,"viability, T/C","second compound 0.0949 µM, first compound 0.001 µM",117%
same,"viability, T/C",[45],86.9%
same,"viability, T/C",[46],75%
same,"viability, T/C",[25],68.1%
same,"viability, T/C",[26],48.5%
same,"viability, T/C","second compound 0.3 µM, first compound 0.000316 µM",107%
same,"viability, T/C","second compound 0.3 µM, first compound 0.001 µM",89.2%
same,"viability, T/C",[47],96.3%
same,"viability, T/C",[48],73.2%
same,"viability, T/C",[31],71.6%
same,"viability, T/C",[32],57.3%
CC(Nc1ccc2c(c1)OCCn1cc(N3C(=O)OCC3C(F)F)nc1-2)C(N)=O (stereo not drawn) + CCn1c(-c2cccnc2C(C)OC)c2c3cc(ccc31)N1CCOC(CC(NC(=O)C(C(C)C)N(C)C(=O)C3(F)CCN(C(=O)C#CC(C)(C)N(C)C)CC3)C(=O)N3CCCC(N3)C(=O)OCC(C)(C)C2)C1,IC50,second compound 0.000949 µM,> 10000 nM
same,IC50,second compound 0.003 µM,> 10000 nM
same,IC50,second compound 0.00949 µM,> 10000 nM
same,IC50,second compound 0.03 µM,> 10000 nM
same,IC50,second compound 0.0949 µM,> 10000 nM
same,IC50,second compound 0.3 µM,> 10000 nM
same,"viability, T/C",[1],97.3%
same,"viability, T/C",[2],101%
same,"viability, T/C",[3],86.2%
same,"viability, T/C",[4],88.7%
same,"viability, T/C",[5],109%
same,"viability, T/C",[6],80.8%
same,"viability, T/C",[7],99.8%
same,"viability, T/C",[8],97.7%
same,"viability, T/C",[9],86.9%
same,"viability, T/C",[10],94.4%
same,"viability, T/C",[11],97.5%
same,"viability, T/C",[12],78.1%
same,"viability, T/C",[13],118%
same,"viability, T/C",[14],85.9%
same,"viability, T/C",[15],84%
same,"viability, T/C",[16],104%
same,"viability, T/C",[17],86.3%
same,"viability, T/C",[18],76.3%
same,"viability, T/C",[19],83.7%
same,"viability, T/C",[20],83.8%
same,"viability, T/C",[21],86.5%
same,"viability, T/C",[22],98.5%
same,"viability, T/C",[23],110%
same,"viability, T/C",[24],75.2%
same,"viability, T/C",[25],102%
same,"viability, T/C",[26],113%
same,"viability, T/C",[27],78.8%
same,"viability, T/C",[28],88.8%
same,"viability, T/C",[29],96.2%
same,"viability, T/C",[30],74.8%
same,"viability, T/C",[31],84.7%
same,"viability, T/C",[32],85.5%
same,"viability, T/C",[33],96.7%
same,"viability, T/C",[34],98.5%
same,"viability, T/C",[35],92.2%
same,"viability, T/C",[36],82.7%
O=C(c1ccc(F)c(F)c1Nc1ccc(I)cc1F)N1CC(O)([C@@H]2CCCCN2)C1 + CCn1c(-c2cccnc2C(C)OC)c2c3cc(ccc31)N1CCOC(CC(NC(=O)C(C(C)C)N(C)C(=O)C3(F)CCN(C(=O)C#CC(C)(C)N(C)C)CC3)C(=O)N3CCCC(N3)C(=O)OCC(C)(C)C2)C1,IC50,second compound 0.000949 µM,74.2 nM
same,IC50,second compound 0.003 µM,125 nM
same,IC50,second compound 0.00949 µM,93.5 nM
same,IC50,second compound 0.03 µM,165 nM
same,IC50,second compound 0.0949 µM,25 nM
same,IC50,second compound 0.3 µM,73.8 nM
same,"viability, T/C",[37],66.2%
same,"viability, T/C",[38],80.3%
same,"viability, T/C",[1],78.2%
same,"viability, T/C",[2],41.3%
same,"viability, T/C",[3],30.4%
same,"viability, T/C",[4],17.1%
same,"viability, T/C",[39],70.2%
same,"viability, T/C",[40],74.1%
same,"viability, T/C",[7],71.4%
same,"viability, T/C",[8],42.2%
same,"viability, T/C",[9],42.6%
same,"viability, T/C",[10],14.7%
same,"viability, T/C",[41],74.3%
same,"viability, T/C",[42],90%
same,"viability, T/C",[13],48.3%
same,"viability, T/C",[14],59.2%
same,"viability, T/C",[15],29.2%
same,"viability, T/C",[16],22.5%
same,"viability, T/C",[43],82.8%
same,"viability, T/C",[44],75.3%
same,"viability, T/C",[19],70.3%
same,"viability, T/C",[20],56%
same,"viability, T/C",[21],41.6%
same,"viability, T/C",[22],21%
same,"viability, T/C",[45],67.2%
same,"viability, T/C",[46],81.3%
same,"viability, T/C",[25],43.8%
same,"viability, T/C",[26],33.7%
same,"viability, T/C",[27],37.9%
same,"viability, T/C",[28],20.6%
same,"viability, T/C",[47],64.3%
same,"viability, T/C",[48],91.2%
same,"viability, T/C",[31],53.7%
same,"viability, T/C",[32],46.6%
same,"viability, T/C",[33],30.1%
same,"viability, T/C",[34],17.6%
